In this assay the target is human EBP (Homo sapiens (Human), UniProt Q15125). Briefly: Competition binding assay (SPA) to determine compound affinity to EBP. Particulars: read-out: hEBP SPA Ki. As for the experimental part: Membrane preparation: To examine compound binding affinity to EBP, human EBP was overexpressed in human embryonic kidney 293 cells. Cell pellet was lysed in 10 times weight binding buffer (50 mM Tris, 5 mM MgCl2, 0.1 mM EDTA, 1× protease inhibitor cocktail, pH 7.5) on ice by using a dounce homogenizer. The solution was centrifuged at 25,000 g for 50 min at 4° C. The membrane pellet was re-suspended in binding buffer and run through a 25 5/8 gauge needle. After checking the concentration by Bradford assay, the whole cell membrane solution was adjusted to 20 mg/mL and stored at −80° C.
human EBP, sequence (Q15125 whole entry): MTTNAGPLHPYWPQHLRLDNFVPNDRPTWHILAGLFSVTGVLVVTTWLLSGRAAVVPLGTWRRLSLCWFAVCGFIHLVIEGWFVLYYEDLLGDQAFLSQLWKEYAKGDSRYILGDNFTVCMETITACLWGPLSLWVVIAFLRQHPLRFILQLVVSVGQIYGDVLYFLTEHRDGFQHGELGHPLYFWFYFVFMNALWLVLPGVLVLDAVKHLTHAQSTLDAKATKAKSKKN
This binding solution was centrifuged at 400 g for 5 minutes to collect the bead/membrane mixture. After re-suspending the pellet in binding buffer at the same calculated volume with 0.01% BSA (Sigma A1933), the bead/membrane mixture was added in 384-well low-binding surface plate (PerkinElmer Cat #6057480) at 25 i/well. Radioligand at different concentrations with and without the non-radio-labeled same ligand 5 uM (for nonspecific and total signal, respectively) was added to bring final volume to 50 i/well with DMSO concentration at 0.1%. At equilibrium (3 hours after ligand addition), radiometric signal CPM was counted by using a Microbeta2 microplate counter (Perkinelmer).
Competition binding assay to determine compound affinity: The same conditions of the radioligand Kd study were used for compound single dose percentage inhibition and equilibrium dissociation constant Ki examinations, except 50 nL compound DMSO stock was pre-added in 384-well low-binding surface plate (PerkinElmer Cat #6057480) by Echo 550 (Labcyte) to reach the final concentration for single dose test at 1 uM, and dose response test from 0.06 nM to 5 uM (8 dose, 5 times dilution). A pre-incubated bead/membrane mixture was added in compound plate at 0.3 mg beads and […] membrane per well. […] At equilibrium (3 hours after ligand addition), radiometric signal was counted as described above. The percentage inhibition of compound at each testing concentration was calculated by normalizing each condition's CPM readout to full block (5 uM non-radiolabeled ligand) and non-block (DMSO) control conditions. Compound binding inhibition IC50 was determined by nonlinear regression fitting of percentage inhibition plot against compound concentration. Compound Ki was calculated from the equation Ki=IC50/(1+[L]/Kd), which [L] was radioligand concentration used in assay. All tests had N bigger or equal to 2.

The mark [1] stands for this setting: radioligand [3H]-Ifenprodil 10 nM, Ki=IC50/(1+[L]/Kd), HEK293 membrane.

pKi: −log10 of the molar value. Like-named read-outs stand apart in the source and are kept apart here.

By pKi is commonly meant the Ki on a negative log10 scale, so that one unit is a factor of ten.

For `C[C@@H](Cc1ccc(C(F)F)cc1)CN1CCC2(C1)CS(=O)(=O)C2` (single isomer, unassigned) [Compound 128A], the pKi under setting [1] was 7.25.
On to `O=S1(=O)CC2(CCN(CC3(Cc4ccc(C(F)(F)F)nc4)CC3)C2)C1` [Example 157, 6-((1-((6-(Trifluoromethyl)pyridin-3-yl)methyl)cyclopropyl)methyl)-2-thia-6-azaspiro[3.4]octane 2,2-dioxide], for which the pKi under setting [1] was 7.60.
Same read-out and setting: as for `CCC(C)(C)c1ccc(CC(C)CN2CCC3(C2)CS(=O)(=O)C3)cc1` (racemic) [Compound 107, 6-(2-Methyl-3-(4-(tert-pentyl)phenyl)propyl)-2-thia-6-azaspiro[3.4]octane 2,2-dioxide], the figure is 7.64; as for `CC(C)(CN1CCC2(C1)CS(=O)(=O)C2)Oc1cccc(C(F)(F)F)c1` [Example 130, 6-(2-Methyl-2-(3-(trifluoromethyl)phenoxy)propyl)-2-thia-6-azaspiro[3.4]octane-2,2-dioxide], 7.80; as for `C[C@@H](Cc1ccc(C(F)(F)F)nc1)CN1CCC2(C1)CS(=O)(=O)C2` (single isomer, unassigned) [118A*], 7.59.
Regarding `C[C@@H](CN1CCC2(CC1)CS(=O)(=O)C2)Oc1ccc(F)c(F)c1` (single isomer, unassigned) [221A*], the pKi was 8.00.
In the case of `CC(C)(CN1CCC2(CC1)CS(=O)(=O)C2)Oc1ccc(C(F)(F)F)cc1` [Example 138, 7-(2-Methyl-2-(4-(trifluoromethyl)phenoxy)propyl)-2-thia-7-azaspiro[3.5]nonane 2,2-dioxide], the pKi under setting [1] is 7.80.
Same read-out and setting: with `CC(Cc1ccc(C2CCC2)cc1)CN1CCC2(C1)CS(=O)(=O)C2` (racemic) [Compound 109A, 6-(3-(4-cyclobutylphenyl)-2-methylpropyl)-2-thia-6-azaspiro[3.4]octane 2,2-dioxide] the figure was 7.49; with `C[C@@H](Cc1ccc(C(F)(F)F)cc1)CN1CCC2(C1)CS(=O)(=O)C2` (single isomer, unassigned) [114A*], 7.46; with `CC(C)(CN1CCC2(C1)CS(=O)(=O)C2)Oc1ccc(C(F)(F)F)nc1` [Example 135, 6-(2-Methyl-2-((6-(trifluoromethyl)pyridin-3-yl)oxy)propyl)-2-thia-6-azaspiro[3.4]octane-2,2-dioxide], 7.54.
Same read-out and setting: as for `CC(C)(CN1CCC2(C1)CS(=O)(=O)C2)Oc1ccc(OC(F)(F)F)cc1` [Example 136, 6-(2-Methyl-2-(4-(trifluoromethoxy)phenoxy)propyl)-2-thia-6-azaspiro[3.4]octane 2,2-dioxide], the figure is 7.54; as for `CC(C)(Cc1ccc(C(F)(F)F)nc1)CN1CC[C@@]2(CCS(=O)(=O)C2)C1` (single isomer, unassigned) [Compound 148B], 7.49; as for `C[C@@H](Cc1ccnc(C(F)(F)F)c1)CN1CCC2(C1)CS(=O)(=O)C2` (single isomer, unassigned) [Compound 126A], 7.52.
Same read-out and setting: with `C[C@H](Cc1ccnc(C(F)(F)F)c1)CN1CCC2(C1)CS(=O)(=O)C2` (single isomer, unassigned) [Compound 126B] the figure was 6.92; with `C[C@H](Cc1ccc(C(F)(F)F)cc1)CN1CCC2(C1)CS(=O)(=O)C2` (single isomer, unassigned) [114B*], 7.47; with `CC(C)(Cc1ccc(C2CCC(F)(F)CC2)c(Cl)c1)CN1CCC2(C1)CS(=O)(=O)C2` [Example 139, 6-(3-(3-Chloro-4-(4,4-difluorocyclohexyl)phenyl)-2,2-dimethylpropyl)-2-thia-6-azaspiro[3.4]octane 2,2-dioxide], 7.52.
Turning to `O=S1(=O)CC2(CCN(CCOc3ccc(C(F)(F)F)cc3)C2)C1` [Compound 112, 6-(2-(4-(Trifluoromethyl)phenoxy)ethyl)-2-thia-6-azaspiro[3.4]octane-2,2-dioxide], the pKi under setting [1] is 7.55.
On the same count and under the same terms, with `CC(C)(CN1CCC2(C1)CS(=O)(=O)C2)Oc1ccc(C2CCC2)cc1` [Example 129, 6-(2-(4-Cyclobutylphenoxy)-2-methylpropyl)-2-thia-6-azaspiro[3.4]octane-2,2-dioxide] the figure was 7.68; with `CC(C)(CN1CCC2(C1)CS(=O)(=O)C2)Oc1cnc(C(F)(F)F)nc1` [Example 144, 6-(2-Methyl-2-((2-(trifluoromethyl)pyrimidin-5-yl)oxy)propyl)-2-thia-6-azaspiro[3.4]octane-2,2-dioxide], 7.28; with `C[C@@H](Cc1cnc(C(F)(F)F)nc1)CN1CCC2(C1)CS(=O)(=O)C2` (single isomer, unassigned) [Compound 145A], 7.25.
Regarding `O=S1(=O)CC2(CCN(CCOc3ccc(C(F)(F)F)nc3)CC2)C1` [Compound 230, 7-(2-((6-(Trifluoromethyl)pyridin-3-yl)oxy)ethyl)-2-thia-7-azaspiro[3.5]nonane 2,2-dioxide], the pKi under setting [1] is 7.66.
With `CC(C)(CN1CC[C@]2(CCS(=O)(=O)C2)C1)Oc1ccc(C(F)(F)F)cc1` (single isomer, unassigned) [Compound 141B], the pKi under setting [1] was 7.21.
With `O=S1(=O)CCC2(CC1)CN(CCOc1ccc(C(F)(F)F)cc1)C2` [Example 201, 2-(2-(4-(Trifluoromethyl)phenoxy)ethyl)-7-thia-2-azaspiro[3.5]nonane 7,7-dioxide], the pKi under setting [1] is 7.89.
Still for that read-out and setting: with `CC(C)(CN1CC[C@@]2(CCS(=O)(=O)C2)C1)Oc1ccc(C(F)(F)F)cc1` (single isomer, unassigned) [Compound 141A] the figure was 7.36; with `COC(Cc1ccc(C(F)(F)F)cc1)CN1CCC2(C1)CS(=O)(=O)C2` (racemic) [Example 143, (S)-6-(2-Methoxy-3-(4-(trifluoromethyl)phenyl)propyl)-2-thia-6-azaspiro[3.4]octane 2,2-dioxide and (R)-6-(2-methoxy-3-(4-(trifluoromethyl)phenyl)propyl)-2-thia-6-azaspiro[3.4]octane 2,2-dioxide], 7.57.
On the same count and under the same terms, as for `O=S1(=O)CC2(CCN(CC[C@H](F)c3ccc(C(F)(F)F)cc3)C2)C1` (single isomer, unassigned) [Compound 122B], the figure is 7.74; as for `C[C@H](Cc1cnc(C(F)(F)F)nc1)CN1CCC2(CC1)CS(=O)(=O)C2` (single isomer, unassigned) [215B*], 7.60; as for `CC(C)(Cc1ccc(C(F)(F)F)nc1)CN1CCC2(C1)CS(=O)(=O)C2` [Example 140, 6-(2,2-Dimethyl-3-(6-(trifluoromethyl)pyridin-3-yl)propyl)-2-thia-6-azaspiro[3.4]octane-2,2-dioxide], 7.74.
Turning to `CC(C)(CN1CCC2(C1)CS(=O)(=O)C2)Oc1cccc(OC(F)(F)F)c1` [Example 131, 6-(2-Methyl-2-(3-(trifluoromethoxy)phenoxy)propyl)-2-thia-6-azaspiro[3.4]octane 2,2-dioxide], under setting [1], the pKi was 7.51.
With `C[C@@H](Cc1cnc(C(F)(F)F)nc1)CN1CCC2(CC1)CS(=O)(=O)C2` (single isomer, unassigned) [215A*], the pKi under setting [1] is 7.68.

Source of the values: patent US20240400579A1, “SPIROCYCLIC MODULATORS OF CHOLESTEROL BIOSYNTHESIS AND THEIR USE FOR PROMOTING REMYELINATION” (GENENTECH, INC., priority 2021, published 2024).
